Read-outs that look alike come from different tables or passages of the source.
Assays:
[1] = tested on: HLA-A2.1-having EBV transformed B-cells (221A2.1); assay: Specific cytotoxic activity of MAGE3-specific CTLs after expansion; format: cell-based, human; settings: for Cytotoxic Activity (%): sample induction +, expansion +
From the text: (§1) CTLs prepared in item (1) of Example 2-1 were washed with 5HRPMI, and then made into a suspension having a concentration of 5×10^4 cells/ml. On the other hand, allogenic PBMCs not having HLA-A24 and HLA-A2.1 which were collected in the same manner as in item (1) of Example 1-1 were subjected to X-ray irradiation (3300R), and the cells were washed with the medium and then made into a suspension having a concentration of 5×10^6 cells/ml. These CTLs (2.5×10^4 cells) and allogenic PBMCs (1.25×10^7 cells) were suspended in 10 ml of 5HRPMI, and anti-CD3 antibody (manufactured by Janssen-Kyowa) was further added thereto so as to give a final concentration of 50 ng/ml. The mixture was placed into a flask of 12.5 cm^2 (manufactured by Falcon), and the cells were cultured in a wet-type CO2 incubator at 37° C. for 14 days. […] The expansion ratio (× times ratio) was calculated by dividing the cell count after the expansion by the cell count before the expansion.

[2] = tested on: HLA-A2.1-having EBV transformed B-cells (221A2.1); settings: FluMPA2.1
[3] = tested on: HLA-A2.1-having EBV transformed B-cells (221A2.1); settings: for Cytotoxic Activity (%) E/T Ratio 3 / Cytotoxic Activity (%) E/T Ratio 10 / Cytotoxic Activity (%) E/T Ratio 1: FluMPA2.1
[4] = tested on: HLA-A2.1-having EBV transformed B-cells (221A2.1); assay: Cytotoxic activity of anti-tumor-associated antigen(MAGE3)-specific CTLs on the thirty-fifth day after the initiation of induction; settings: 10 μg/ml
[5] = tested on: anti-influenza virus memory CTLs (FluMPA2.1); format: cell-based, human
[6] = tested on: anti-tumor-associated antigen(MAGE3)-specific CTLs; assay: Expansion ratio of MAGE3-specific CTLs; format: cell-based, human; settings: sample 10 μg/ml: induction +, 14 days
From the text: as §1

[7] = Example 2-4, sample 10 μg/ml during CTL induction +, during expansion +, peptide addition +
[8] = Example 2-4, sample 10 μg/ml during CTL induction +, during expansion +, peptide addition −
[9] = Example 2-6, sample during CTL induction −, during expansion + (10 μg/ml), peptide addition +
[10] = Example 2-6, sample during CTL induction −, during expansion + (10 μg/ml), peptide addition −
[11] = Example 2-7, sample 10 μg/ml during CTL induction +, during expansion +, peptide addition +
[12] = Example 2-7, sample 10 μg/ml during CTL induction +, during expansion +, peptide addition −
[13] = Example 2-7, sample 10 μg/ml during CTL induction +, during expansion −, peptide addition +
[14] = Example 2-7, sample 10 μg/ml during CTL induction +, during expansion −, peptide addition −
[15] = Example 1-3, sample 10 μg/ml during CTL induction +, during culture with IL-2 +, peptide addition +
[16] = Example 1-3, sample 10 μg/ml during CTL induction +, during culture with IL-2 +, peptide addition −
[17] = Example 1-5, sample during CTL induction −, during culture with IL-2 + (10 μg/ml), peptide addition +
[18] = Example 1-5, sample during CTL induction −, during culture with IL-2 + (10 μg/ml), peptide addition −
[19] = sample 10 μg/ml only during continuous culture
[20] = Example 2-4, sample 10 μg/ml during CTL induction +, during expansion +
[21] = Example 2-6, sample during CTL induction −, during expansion + (10 μg/ml)

What does the source list for “Ardeparin sodium [L. M. W. Heparin, reference compound]”?
cytotoxic activity after expansion for 14 days (in words) ([1]; MAGE3-specific CTLs, sample 10 μg/ml during CTL induction and during expansion): specific, high cytotoxic activity; Cytotoxic Activity (%) ([1]; peptide addition +, E/T ratio 3): 65.3%; Cytotoxic Activity (%) ([1]; peptide addition +, E/T ratio 9): 104.8%; Cytotoxic Activity (%) ([1]; peptide addition −, E/T ratio 3): 2.6%; Cytotoxic Activity (%) ([1]; peptide addition −, E/T ratio 9): 3.7%; Cytotoxic Activity (%) E/T Ratio 3 [2, 7]: 56.4%; Cytotoxic Activity (%) E/T Ratio 10 [2, 7]: 92.9%; Cytotoxic Activity (%) E/T Ratio 3 [2, 8]: 5.2%; Cytotoxic Activity (%) E/T Ratio 10 [2, 8]: 19.6%; Cytotoxic Activity (%) E/T Ratio 1 [2, 9]: 11.3%; Cytotoxic Activity (%) E/T Ratio 3 [2, 9]: 22.2%; Cytotoxic Activity (%) E/T Ratio 10 [2, 9]: 43.9%; Cytotoxic Activity (%) E/T Ratio 30 [2, 9]: 71.2%; Cytotoxic Activity (%) E/T Ratio 1 [2, 10]: 1.4%; Cytotoxic Activity (%) E/T Ratio 3 [2, 10]: 0%; Cytotoxic Activity (%) E/T Ratio 10 [2, 10]: 0.6%; Cytotoxic Activity (%) E/T Ratio 30 [2, 10]: 2.5%; Cytotoxic Activity (%) E/T Ratio 1 [2, 11]: 16.3%; Cytotoxic Activity (%) E/T Ratio 3 [2, 11]: 22.7%; Cytotoxic Activity (%) E/T Ratio 10 [2, 11]: 43.9%; Cytotoxic Activity (%) E/T Ratio 30 [2, 11]: 72.8%; Cytotoxic Activity (%) E/T Ratio 1 [2, 12]: 5.6%; Cytotoxic Activity (%) E/T Ratio 3 [2, 12]: 2.5%; Cytotoxic Activity (%) E/T Ratio 10 [2, 12]: 1.1%; Cytotoxic Activity (%) E/T Ratio 30 [2, 12]: 0.9%; Cytotoxic Activity (%) E/T Ratio 1 [2, 13]: 12.5%; Cytotoxic Activity (%) E/T Ratio 3 [2, 13]: 26.9%; Cytotoxic Activity (%) E/T Ratio 10 [2, 13]: 57.8%; Cytotoxic Activity (%) E/T Ratio 30 [2, 13]: 83.7%; Cytotoxic Activity (%) E/T Ratio 1 [2, 14]: 5.2%; Cytotoxic Activity (%) E/T Ratio 3 [2, 14]: 4.5%; Cytotoxic Activity (%) E/T Ratio 10 [2, 14]: 6.6%; Cytotoxic Activity (%) E/T Ratio 30 [2, 14]: 7.0%; Cytotoxic Activity (%) E/T Ratio 3 [3, 15]: 49.0%; Cytotoxic Activity (%) E/T Ratio 10 [3, 15]: 71.7%; Cytotoxic Activity (%) E/T Ratio 3 [3, 16]: 11.7%; Cytotoxic Activity (%) E/T Ratio 10 [3, 16]: 14.2%; Cytotoxic Activity (%) E/T Ratio 10 [3, 17]: 18.3%; Cytotoxic Activity (%) E/T Ratio 10 [3, 18]: 0%; cytotoxic activity after continuous culture (in words) ([3]; sample 10 μg/ml during CTL induction and during continuous culture, 10 to 14 days): continuous culture of CTLs having an antigen-specific cytotoxic activity can be carried out; cytotoxic activity after continuous culture (in words) [3, 19]: maintaining an antigen-specific cytotoxic activity; difference in the cytotoxic activity by the presence or absence of the addition during the induction [4]: almost no difference; Expansion Ratio [5, 20]: × 240; Expansion Ratio [5, 21]: × 353; Expansion Ratio ([5]; Example 2-7, sample 10 μg/ml during CTL induction +, during expansion +): × 243; Expansion Ratio ([5]; Example 2-7, sample 10 μg/ml during CTL induction +, during expansion −): × 253; Expansion Ratio [6]: × 433

swellable alginic acid was tested. Which “Cytotoxic Activity (%) E/T Ratio 3” value [2, 7] did it give?
Its value is 65.0%.

And the “Cytotoxic Activity (%) E/T Ratio 10” value [2, 7]?
Its value is 101.6%.

What about the “Cytotoxic Activity (%) E/T Ratio 3” value [2, 8] of the same substance?
The value was 14.3%.

And the “Cytotoxic Activity (%) E/T Ratio 10” value [2, 8]?
The value was 21.3%.

And the “Cytotoxic Activity (%) E/T Ratio 1” value [2, 9]?
Its value is 15.4%.

And the “Cytotoxic Activity (%) E/T Ratio 3” value [2, 9]?
The value was 22.0%.

What about the “Cytotoxic Activity (%) E/T Ratio 10” value [2, 9] of the same substance?
Its value is 47.8%.

And the “Cytotoxic Activity (%) E/T Ratio 30” value [2, 9]?
The value was 81.7%.

What about the “Cytotoxic Activity (%) E/T Ratio 1” value [2, 10] of the same substance?
Its value is 0.1%.

And the “Cytotoxic Activity (%) E/T Ratio 3” value [2, 10]?
The value was 0%.

What about the “Cytotoxic Activity (%) E/T Ratio 10” value [2, 10] of the same substance?
Its value is 2.1%.

What about the “Cytotoxic Activity (%) E/T Ratio 30” value [2, 10] of the same substance?
Its value is 10.6%.

What about the “Cytotoxic Activity (%) E/T Ratio 1” value [3, 15] of the same substance?
The value was 39.8%.

What about the “Cytotoxic Activity (%) E/T Ratio 3” value [3, 15] of the same substance?
The value was 75.3%.

And the “Cytotoxic Activity (%) E/T Ratio 10” value [3, 15]?
The value was 86.9%.

And the “Cytotoxic Activity (%) E/T Ratio 1” value [3, 16]?
Its value is 12.5%.

What about the “Cytotoxic Activity (%) E/T Ratio 3” value [3, 16] of the same substance?
Its value is 26.5%.

And the “Cytotoxic Activity (%) E/T Ratio 10” value [3, 16]?
The value was 22.2%.

What about the “Cytotoxic Activity (%) E/T Ratio 1” value [3, 17] of the same substance?
The value was 12.6%.

What about the “Cytotoxic Activity (%) E/T Ratio 3” value [3, 17] of the same substance?
The value was 18.7%.

And the “Cytotoxic Activity (%) E/T Ratio 10” value [3, 17]?
The value was 35.6%.

What about the “Cytotoxic Activity (%) E/T Ratio 1” value [3, 18] of the same substance?
The value was 3.3%.

And the “Cytotoxic Activity (%) E/T Ratio 3” value [3, 18]?
Its value is 1.3%.

And the “Cytotoxic Activity (%) E/T Ratio 10” value [3, 18]?
Its value is 8.8%.

And the “cytotoxic activity after continuous culture (in words)” value [3, 19]?
The value was “maintaining an antigen-specific cytotoxic activity”.

What about the “Expansion Ratio” value [5, 20] of the same substance?
The value was “× 176”.

And the “Expansion Ratio” value [5, 21]?
Its value is “× 378”.
